Test results reported in the supplement of paper PMC10307832.

Columns and labels:
Experiment in all cases: relative viability (nuclei count vs DMSO), 5 days (fraction); higher = more cells survive
Sulindac + Tozasertib = compound: CC1=C(CC(=O)O)c2cc(F)ccc2/C1=C\c1ccc([S+](C)[O-])cc1 [Sulindac] + Cc1cc(Nc2cc(N3CCN(C)CC3)nc(Sc3ccc(NC(=O)C4CC4)cc3)n2)n[nH]1 [Tozasertib] (partner 0.1 µM)
Method in brief: (§1)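 For relative viability, nuclei counts in treated wells were divided by those in vehicle wells. Lung cancer cell lines had been pin-tool dosed in 1536-well plates the day after seeding and cultured for 5 days, then fixed and stained in one step (final 0.05% Triton X-100, 1% formaldehyde, 1 ug/ml Hoechst) and imaged at 4×. Doses were one drug alone or a fixed anchor-drug dose plus five library-drug doses (not always all listed) in √10 steps, and values are duplicate-plate medians.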

[1] = compound: CN[C@@H]1C[C@H]2O[C@@](C)([C@@H]1OC)n1c3ccccc3c3c4c(c5c6ccccc6n2c5c31)C(=O)NC4 [Staurosporine] + Nc1nc2[nH]cc(CCc3ccc(C(=O)N[C@@H](CCC(=O)O)C(=O)O)cc3)c2c(=O)[nH]1 [Pemetrexed] (partner 0.2 µM)
Method in brief: as §1

[2] = compound: O=c1[nH]cc(F)c(=O)[nH]1 [5-Fluorouracil] + Cc1nc(Nc2ncc(C(=O)Nc3c(C)cccc3Cl)s2)cc(N2CCN(CCO)CC2)n1 [Dasatinib] (partner 0.075 µM)
Method in brief: as §1

[3] = compound: O=c1[nH]cc(F)c(=O)[nH]1 [5-Fluorouracil] + Nc1nc2[nH]cc(CCc3ccc(C(=O)N[C@@H](CCC(=O)O)C(=O)O)cc3)c2c(=O)[nH]1 [Pemetrexed] (partner 0.2 µM)
Method in brief: as §1

Cell Line	relative viability (Sulindac + Tozasertib; first compound 0.08 µM)	relative viability (Sulindac + Tozasertib; first compound 0.253 µM)	relative viability (Sulindac + Tozasertib; first compound 0.8 µM)	relative viability (Sulindac + Tozasertib; first compound 2.53 µM)	relative viability (Sulindac + Tozasertib; first compound 8 µM)	relative viability ([1]; first compound 0.005 µM)	relative viability ([1]; first compound 0.01581 µM)	relative viability ([1]; first compound 0.05 µM)	relative viability ([1]; first compound 0.1581 µM)	relative viability ([1]; first compound 0.5 µM)	relative viability ([2]; first compound 0.02 µM)	relative viability ([2]; first compound 0.2 µM)	relative viability ([2]; first compound 0.6325 µM)	relative viability ([2]; first compound 2 µM)	relative viability ([3]; first compound 0.02 µM)	relative viability ([3]; first compound 0.2 µM)	relative viability ([3]; first compound 0.6325 µM)	relative viability ([3]; first compound 2 µM)
NCI-H596	0.877	0.939	0.913	0.946	1	0.485	0.265	0.297	0.27	0.148	0.717	0.605	0.48	0.366	0.547	0.524	0.486	0.435
NCI-H647	0.35	0.364	0.481	0.566	0.448	0.118	0.0997	0.104	0.0736	0.0566	0.193	0.232	0.206	0.188	0.187	0.182	0.176	0.164
NCI-H650	0.76	0.744	0.71	0.607	0.757	0.64	0.257	0.235	0.23	0.228	0.444	0.341	0.287	0.336	0.762	0.649	0.36	0.317
NCI-H661	0.351	0.336	0.362	0.362	0.38	0.901	0.667	0.542	0.353	0.186	0.962	1.01	0.81	0.851	0.998	0.905	0.947	0.883
NCI-H838	0.283	0.269	0.253	0.248	0.218	0.205	0.148	0.144	0.111	0.112	0.293	0.291	0.243	0.27	0.261	0.253	0.257	0.249
NCI-H1355	0.544	0.607		0.502	0.57	0.999	0.609	0.449	0.27	0.2	0.824	0.58	0.283	0.234	0.928	0.762	0.311	0.257
NCI-H1395	0.694	0.732	0.776	0.733	0.866	0.789	0.341	0.316	0.31	0.255	0.39	0.45	0.367	0.442	0.743	0.994	0.902	0.893
NCI-H1437	0.438	0.434	0.32	0.397	0.429	0.268	0.214	0.182	0.17	0.131	0.369	0.183	0.189	0.137	0.269	0.271	0.208	0.262
NCI-H1650	0.456	0.381		0.287	0.426	0.325	0.239	0.209	0.23	0.104	0.297	0.291	0.202	0.218	0.362	0.335	0.353	0.286
NCI-H1651	0.755	0.66		0.686	0.666	0.613	0.426	0.274	0.156	0.159	0.438	0.363	0.276	0.401	0.502	0.457	0.3	0.305
NCI-H1666	0.624	0.627	0.593	0.562	0.648	0.737	0.613	0.53	0.538	0.415	0.848	0.555	0.4	0.391	0.922	0.763	0.61	0.548
NCI-H1734	0.221	0.25		0.295	0.286	0.394	0.305	0.338	0.133	0.141	0.41	0.521	0.407	0.291	0.419	0.412	0.401	0.45
NCI-H1755	0.52	0.586	0.573	0.593	0.694	0.348	0.321	0.236	0.224	0.223	0.416	0.442	0.247	0.184	0.509	0.367	0.32	0.295
NCI-H1793	0.283	0.283	0.349	0.33	0.336	0.865		0.371	0.154	0.125	0.378	0.413	0.368	0.313	0.944	0.942	0.695	0.503
NCI-H1915	0.505	0.451		0.423	0.416	0.486	0.231	0.219	0.15	0.0886	0.305	0.31	0.303	0.266	0.395	0.542	0.421	0.419
NCI-H1944	0.258	0.263	0.254	0.247	0.259	0.626	0.311	0.26	0.164	0.185	0.21	0.225	0.138	0.127	0.523	0.527	0.249	0.179
NCI-H1975	0.888	0.825	0.927	0.722	1.15	0.246	0.185	0.184	0.128	0.118	0.363	0.387	0.307	0.231	0.309	0.28	0.243	0.219
NCI-H1993	0.597	0.629	0.514	0.651	0.598	0.631	0.428	0.539	0.332	0.267	0.581	0.566	0.503	0.487	0.559	0.49	0.577	0.525

Cell Line	relative viability (Sulindac + Tozasertib; first compound 0.08 µM)	relative viability (Sulindac + Tozasertib; first compound 0.253 µM)	relative viability (Sulindac + Tozasertib; first compound 0.8 µM)	relative viability (Sulindac + Tozasertib; first compound 2.53 µM)	relative viability (Sulindac + Tozasertib; first compound 8 µM)	relative viability ([1]; first compound 0.005 µM)	relative viability ([1]; first compound 0.01581 µM)	relative viability ([1]; first compound 0.05 µM)	relative viability ([1]; first compound 0.1581 µM)	relative viability ([1]; first compound 0.5 µM)	relative viability ([2]; first compound 0.02 µM)	relative viability ([2]; first compound 0.2 µM)	relative viability ([2]; first compound 0.6325 µM)	relative viability ([2]; first compound 2 µM)	relative viability ([3]; first compound 0.02 µM)	relative viability ([3]; first compound 0.2 µM)	relative viability ([3]; first compound 0.6325 µM)	relative viability ([3]; first compound 2 µM)
NCI-H2009	0.883	0.809	0.712	0.707	0.99	0.895	0.389	0.222	0.156	0.112	0.226	0.322	0.248	0.271	1.15	0.968	0.85	0.656
NCI-H2023	0.558	0.365	0.322	0.3	0.41	0.183	0.154	0.0933	0.0756	0.0692	0.542	0.185	0.102	0.0866	0.212	0.129	0.126	0.115
NCI-H2085	0.789	0.842	0.829	0.797	0.807	0.635	0.307	0.429	0.206	0.242	0.192	0.218	0.21	0.301	0.886	0.893	0.857	0.599
NCI-H2087	0.237	0.284		0.293	0.233	0.548	0.531	0.429	0.171	0.117	0.917	0.835	0.532	0.483	0.624	0.593	0.609	0.588
NCI-H2126	0.887	0.905	0.895	0.754	0.934	0.64	0.262	0.4	0.279	0.211	0.552	0.315	0.244	0.212	0.647	0.435	0.38	0.304
NCI-H2170	0.791	0.928	0.797	0.675	0.719	0.247		0.243	0.101	0.173	0.566	0.53	0.393	0.28	0.363	0.266	0.242	0.255
NCI-H2228	0.222	0.248	0.242	0.294	0.262	0.288	0.185	0.192		0.116	0.562	0.457	0.349	0.268	0.3	0.334	0.39	0.367
NCI-H2342	0.447	0.492	0.513	0.397	0.583	0.773	0.746	0.433	0.315	0.319	0.305	0.343	0.301	0.293	0.744	0.84	0.776	0.725
NCI-H2347	0.522	0.615		0.528	0.598	0.36	0.321	0.32	0.329	0.291	0.334	0.328	0.295	0.224	0.365	0.414	0.424	0.426
NCI-H2405	0.733	0.795	0.684	0.793	0.751	0.417	0.174	0.14	0.0988	0.1	0.217	0.231	0.197	0.224	1.11	1.12	1.07	0.535
NCI-H3122	0.4	0.469	0.377	0.352	0.466	0.183		0.177	0.167	0.105	0.917	0.76	0.32	0.205	0.197	0.181	0.167	0.164
PC-3 [JPC-3]	0.982	0.984	0.828	0.868	0.878	0.975	0.444	0.516	0.389	0.347	0.979	1.08	0.946	0.709	0.987	1.02	1.02	0.751
PC-14	0.605	0.659	0.538	0.575	0.685	0.159	0.131	0.0585	0.0487	0.048	0.247	0.268	0.274	0.188	0.128	0.14	0.147	0.18
RERF-LC-KJ	0.569	0.56	0.521	0.307	0.568	0.501	0.423	0.375	0.205	0.202	0.908	1.01	0.777	0.571	0.483	0.507	0.531	0.495
SK-LU-1	0.286	0.347	0.342	0.288	0.406	0.416	0.182	0.167	0.163	0.176	0.189	0.182	0.195	0.166	0.959	1.01	0.916	0.763
SK-MES-1	1.07	1.01	0.848	0.956	1.09	0.543	0.277		0.145	0.141	0.293	0.257	0.227	0.218	0.837	0.473	0.351	0.303
SW 900		0.516		0.462	0.585	0.404	0.356	0.296	0.161	0.115	0.507	0.539	0.548	0.577	0.468	0.491	0.518	0.385
SW 1573	0.183	0.144		0.172	0.163	0.297	0.34	0.204	0.0927	0.0611	0.58	0.402	0.472	0.259	0.853	0.815	0.704	0.408
